Measured values from a melting point compilation (Tetko et al.; mined from patent text by program, amines drawn as free bases though some values may be those of a salt).

Row | melting point [°C] | Compound
1 | 124 to 125 | CSc1ncc(N(C)C(=O)C(C)(C)c2cc(C(F)(F)F)cc(C(F)(F)F)c2)c(-c2ccccc2C)n1
2 | 112 to 116 | COc1cc(OCc2ccccn2)ccc1/C=C/c1cc(/C=C/c2c[nH]c3ccccc23)n[nH]1
3 | 133 | Cn1nc(Br)c([N+](=O)[O-])c1NCc1ccccc1
4 | 118 to 120 | COc1cc(C(=O)c2ccccc2F)ccc1OCc1ccccc1
5 | 263 | N#Cc1ccc(COc2ccc(CC(NC(=O)c3cn4ccc(-c5ccc(Cl)cc5)cc4n3)C(=O)O)cc2)cc1 (centres undefined)
6 | 178 to 181 | O=C(Nc1ccc(Cl)cn1)c1cc(Cl)ccc1NCC1CCN(C2CCSC2)CC1 (centres undefined)
7 | 134 | COc1cccc(-c2nc(N)ncc2-c2ccc(=O)[nH]n2)c1
8 | 75 to 76 | CCNc1nc(NC2CC2)cc(SC)n1
9 | 251 to 254 | CC1(C)Oc2ccc(C3=NNC(=O)CC3)cc2NC1=O
10 | 163 to 167 | N#Cc1cc(C(=O)NNC(=O)c2occ(-c3ccccc3)c2-c2ccccc2)ccc1OC(=O)c1ccccc1
11 | 203 to 209 | COc1ccc2c(c1)c1c3c(c(-c4c(Cl)cccc4Cl)cc1n2CCC(=O)O)C(=O)NC3=O
12 | 152 to 153 | CC(C)C[C@@H]1N[C@@H](c2ccc(C#N)cc2)[C@H]2C(=O)N(Cc3ccccc3)C(=O)[C@H]21 (racemic)
13 | 73 to 75 | CCOC(=O)[C@@H](CO)NCc1c(N)cccc1Cl
14 | 215 to 217 | CNC(=O)c1ccc(C(=O)O)cc1N
15 | 97.6 to 98.6 | CCOC(=O)C1=Cc2cc(Cl)c(F)cc2OC1C(F)(F)F (centres undefined)
16 | 100 to 101 | C#Cc1ccc(OC)c(C#N)c1
17 | 235 to 237 | CS(=O)(=O)NC[C@@H]1CN(c2ccc(N3CCC(=CC#N)CC3)c(F)c2)C(=O)O1
18 | 280 to 281 | Cc1cc(-c2nc3ccc(N4CCOCC4)cc3c(=O)[nH]2)cc(C)c1OCCO
19 | 168 | COC1=C(OC)CC(C)(CNCCCCc2ccc(NC(=O)c3cccc4c(=O)c5cc(F)ccc5sc34)cc2)C=C1 (centres undefined)
20 | 57.2 to 58.3 | O=C(COCc1cccs1)C12CC3CC(CC(C3)C1)C2
21 | 65 to 66 | CC1(C)OCCc2nc(-c3ccccc3)sc21
22 | 60 | CS(=O)(=O)c1ccc(-c2cc(O)sc2-c2ccc(F)cc2)cc1
23 | 104 to 105 | COc1cc(C=O)ccc1OC(C)c1nc(-c2ccccc2)oc1C (centres undefined)

Row | melting point [°C] | Compound
24 | 92 to 94 | COc1ccccc1N1CCN(CCNc2ccccc2C(C)=O)CC1
25 | 80 to 82 | COc1cc(Cn2cnc3cccnc32)ccc1C(=O)N(C1CCCC1)C1CC(C)CC(C)C1 (centres undefined)
26 | 202 to 203 | CCCCCCCCc1c(CC)nc2nc(Cl)nn2c1N
27 | > 60 | CCCCN(Cc1ccc(-c2ccccc2S(=O)(=O)NC(=O)c2ccccc2Cl)cc1)C(=O)N(C)c1ccccc1C(F)(F)F
28 | 170 | CCOC(=O)c1ccc(-c2ccc(O)c(-c3ccc(N(CC)CC)c(C(F)(F)F)c3)c2)cc1
29 | 109 to 110 | CC(C)(C)OC(=O)COc1ccc(NC(=O)OCc2ccccc2)cc1
30 | 81 to 83 | O=C1N[C@H](C(=O)NCCCCO)CS1
31 | 95 to 96 | Cc1noc(C)c1Cn1cc(N2C(=O)CN(CCc3ccccc3)C2=O)cn1
32 | 183 to 185 | O=c1oc(OCCBr)c(Cl)c2ccccc12
33 | 90 to 92 | Cc1ccc(Sc2ccnc3sccc23)cc1
34 | 182 to 184 | CCC=Cc1ncc(/C=C(\Cc2cccs2)c2nnn[nH]2)n1Cc1ccccc1Cl
35 | 99 to 100 | c1ccc(Sc2cc(-c3ccccc3)n[nH]2)cc1
36 | 167 to 170 | O=C(c1ccccc1)N1CCc2cc(S(=O)(=O)n3cc(-c4ccccc4)[nH]c3=O)ccc21
37 | 82 to 83 | CC(C)=CCc1c(O)cc(O)cc1-c1cc2ccc(O)cc2o1
38 | 221 to 223 | COc1ccc(S(=O)(=O)N2CCN(C(=O)c3ccc(Nc4ccnc5cc(C(F)(F)F)ccc45)cc3)CC2)cc1
39 | 187 to 188 | Cc1ncc(CN2CC=C(C#Cc3ccccc3)CC2)c(N)n1
40 | 132 to 133 | CCOC(=O)c1ccc(-c2coc(-c3cccc(C(F)(F)F)c3)n2)cc1
41 | 152 to 154 | CCC1(C)CN(c2c(F)cc3c(=O)c(C(=O)O)cn(C4CC4)c3c2OC)CCC1N (centres undefined)
42 | 282 to 285 | NS(=O)(=O)c1cc(C(=O)O)cc(N2CCCC2=O)c1Oc1ccccc1
43 | 171 to 173 | O=[N+]([O-])c1cnn2c1-c1ccccc1NC2C=Cc1ccccc1 (centres undefined)
44 | 176 to 178 | CCn1cc(C(=O)O)c(=O)c2cc(OC)c(C3CCCCC3)cc21
45 | 141 to 142 | CCCc1cn(C)cc(-c2ccc(Cl)c(C(F)(F)F)c2)c1=O
46 | 125 to 127 | Cc1ccc(S(=O)(=O)OCC(O)Cc2c(Cl)cc3c(c2O)CCC3)cc1 (centres undefined)

Row | melting point [°C] | Compound
47 | 195 to 198 | COC(=O)c1c(S(=O)(=O)NC(=O)Nc2nc(C)nc(OC)n2)c(C)nn1C
48 | 143 to 144 | CCS(=O)(=O)N(C)C1c2cc(F)c(Cl)cc2OC(C)(C)C1OC(C)=O (centres undefined)
49 | 140 to 146 | COc1ccc(Cc2ncc(CO)c3cc(OC)c(OC)cc23)cc1OC
50 | 108 to 121 | CCC(C)n1ccnc1S (centres undefined)
51 | 63 to 65 | CCCc1cc(COc2cc(CC)nc(C)c2OC)ccc1-c1ccccc1S(=O)(=O)Nc1noc(C)c1C
52 | 140 to 143 | CCC(=O)NCCC1=CCc2cc(F)c(OC)cc21
53 | 251 | Cc1cc(C(=O)Nc2cccc(Sc3ccc4nc(NC(=O)C5CC5)cn4n3)c2)n(C)n1
54 | 250 to 252 | CC(C)(CO)c1ccc(C(=O)Nc2cn3cc(-c4ccsc4)ccc3n2)cc1
55 | 106 to 108 | O=C(O)c1ccc(Cl)cc1C(F)(F)F
56 | 264 to 265 | Nc1cc(C(=O)O)cc(S(N)(=O)=O)c1Oc1ccc(OCc2ccccc2)cc1
57 | 175 to 176 | COc1ccc(N(C(=O)c2ccc3ccccc3c2)c2ccc(OCc3ccccc3)cc2)cc1
58 | 132 to 133 | Cn1c(CC#N)ccc1C(=O)c1cccs1
59 | 253 to 255 | O=C(NCC(=O)N1CCSC1)c1cc2cc(Cl)ccc2[nH]1
60 | 156 to 159 | CCON=C(CC)C1=C(O)CC(c2ccc3c(c2)N(CC#N)C(=O)CO3)CC1=O (centres undefined)
61 | 280 to 282 | CCCc1nc2nc3cc(Cl)ccc3nc2[nH]1
62 | 94 to 97 | O=C(c1cccs1)c1cnn2c(-c3ccc(F)c(N(C(=O)OCC(Cl)(Cl)Cl)C(=O)OCC(Cl)(Cl)Cl)c3)ccnc12
63 | 141 to 142 | Cc1oc(-c2ccccc2)nc1COc1ccc(COc2ccc3ccccc3c2C=O)cc1
64 | 79 to 80 | CC1CCc2cc3c(cc21)OCC(=O)CO3 (centres undefined)
65 | 105 to 108 | CCCN(C)c1nn(C)c(=O)c2c1ccn2-c1c(C)cc(C)cc1C
66 | 43 | CCCC(O)(C=Cc1ccccc1)CC(=O)OC (centres undefined)
67 | 212 to 214 | CC(C)Nc1nc2c(Cl)cc(Cl)cc2n1[C@H]1O[C@@H](CO)[C@H](O)[C@@H]1O
68 | 124 to 126 | COc1ccc2c(c1)N(CCCCl)c1cccc(S(=O)(=O)N(C)C)c1S2
69 | 136 to 137 | O=C(NCCO)c1cccc(-c2cccn3cc(Cc4cccc(C(F)(F)F)c4)nc23)c1

Row | melting point [°C] | Compound
70 | 165 | O=C(Nc1ccccc1C(=O)NCc1ccccc1)N[C@@H](Cc1ccc(NC(=O)c2c(Cl)cccc2Cl)cc1)C(=O)O
71 | 129 to 136 | CC(=O)Oc1c(C2(OC(C)=O)C(=O)c3ccccc3C2=O)ccc(Cl)c1Cl
72 | 142 to 144 | Cc1cc(C)c2sc(N)nc2c1
73 | 164 to 167 | c1cc(Nc2nccc3ccccc23)cc(-n2ccnc2)c1
74 | 293 | O=C(Nc1ccc2c(c1)S(=O)(=O)NC1CCCN21)c1ccccc1 (centres undefined)
75 | > 285 | O=C(O)c1ccc2nc3ccc(C(=O)O)nn3c(=O)c2c1
76 | 208 to 209 | O=c1c(-c2ccccc2)c(CSc2ncnc3[nH]cnc23)oc2ccccc12
77 | 213 | Cc1n[nH]c(C)c1-c1cccc(OC2SCC(O)C(O)C2O)c1 (centres undefined)
78 | 131 | CNC(=O)c1cccc(NC(=O)Cc2cccc(C)c2)c1
79 | 259 to 260 | CCNC(=O)c1[nH]c2ccc(Cl)cc2c1S(=O)(=O)c1ccccc1
80 | 207 to 208 | CNC(=O)c1ccc(O[C@H]2CC[C@@H](NC(=O)Nc3ccc(OC(F)(F)F)cc3)CC2)cc1
81 | 152 to 153 | Cc1sc(-c2cccs2)nc1O
82 | 144 | CCCCOc1ccc(S(=O)(=O)C2(C(=O)NO)CCN(Cc3ccccc3)CC2)cc1
83 | 72.7 to 73.3 | CCCCCC1CCc2cc(C(=O)Oc3ccc(C#N)cc3)ccc2C1 (centres undefined)
84 | 189 to 193 | CCC1(C2CCCC2)Cc2cc(OCCCC(=O)O)c(Cl)c(Cl)c2C1=O (centres undefined)
85 | 304 to 306 | O=CNc1nc2c(s1)-c1nc(-c3ccccc3)ncc1CC2
86 | 120 to 123 | CN1CCN(Cc2ccc(NC(=O)N3CCCc4cc(Oc5ccnc(N)n5)ccc43)cc2C(F)(F)F)CC1
87 | 146 | CC(C)c1ccc(C2NCCc3c2[nH]c2ccccc32)cc1 (centres undefined)
88 | 151 to 153 | CN(C)c1ccc(-c2ccnc3c(C(=O)c4cccs4)cnn23)cc1NC(=O)c1ccncc1
89 | 204 to 206 | COc1ccc(/C=C/c2c(Cl)cncc2Cl)c2cc(-c3ccncc3)oc12
90 | 193 to 194 | Cc1cc(S(N)(=O)=O)ccc1NC(=O)CCl
91 | 70 to 72 | Nc1cccc2c1OCC2
92 | 47 to 49 | CCC(=O)c1ccc(OC(C)(C)C(=O)OC)cc1

Row | Compound | melting point [°C]
93 | COCC#Cc1ccc(CNC(=O)[C@@H](COC)NC(C)=O)cc1 | 141 to 142
94 | CCNC1CCc2[nH]c3ccc(OCc4ccccc4)cc3c2C1 (centres undefined) | 117 to 118
95 | Cc1ccc2c(c1)c(O)c(C(=O)NC1CCCCC1)c(=O)n2Cc1ccc(F)cc1 | 156
96 | COc1c(C(O)CNC(C)(C)Cc2c(C)cc(C)cc2C)ccc(O)c1O (centres undefined) | 98 to 105
97 | CCC[C@H]1C(=O)N[C@H]2CCN[C@@H]21 (relative stereo) | 97 to 100
98 | CC1(C)NC(=O)N(c2ccc(C#N)c(C(F)(F)F)c2)C1=O | 210
99 | N#Cc1ccc(N2C(=N)C3(CCCC3)NC2=O)cc1C(F)(F)F | 212 to 213
